Data taken from US9206123B2, “Prodrugs of inhibitors of plasma kallikrein” (ActiveSite Pharmaceuticals, Inc., priority 2009, dated 2015).
Entries after “also recorded” stand apart in the source; their conditions may differ. Non-standard residues stand in square brackets, D forms with d. *: point of attachment. CH2Cl = ClC*

Assays:
ischemic stroke = conditions: rat model of ischemic stroke; cited from earlier work
[1] = test system: retinal vascular permeability; conditions: angiotensin-II-treated rodents; Phipps et al. 2009; cited from earlier work
hemorrhagic stroke = conditions: model of hemorrhagic stroke; cited from earlier work
[2] = test system: retinal vascular permeability; test: Angiotensin-II infusion model, retinal vascular permeability by vitreous fluorescein fluorophotometry; assay type: in vivo, Sprague-Dawley rats; conditions: twice-daily oral gavage for five days
From the text: Continuous infusion of the vasoconstrictor peptide angiotensin-II in Sprague-Dawley rats over 3-7 days using subcutaneously implanted Alzet minipumps results in elevated blood pressure, and is accompanied by increased retinal vascular permeability, which can be measured using the technique of vitreous fluorescein fluorophotometry, as described in the prior art (Clermont, A. C., et al (2006) Invest Ophthalmol V is Sci.; 47: 2701-8). […] Inhibition of the excess retinal vascular permeability in this animal model following administration of compounds of the present invention via oral, subcutaneous, topical or intravitreal routes thus provides evidence of inhibition of plasma kallikrein in vivo.

[3] = target: T1, Human plasma kallikrein (PK) (Homo sapiens, UniProt P03952); test: Human plasma kallikrein (PK) enzymatic inhibition assay, substrate H-D-Pro-Phe-Arg-pNA; assay type: biochemical; conditions: corrected Ki from Ki,app; 2 nM PK, 0.05 M HEPES pH 7.5, Km 0.33 mM
T1 construct: purchased Enzyme Research Laboratories (Gary, Ind.)
Experimental: Human plasma kallikrein (PK) was obtained from Enzyme Research Laboratories (Gary, Ind.). The enzymatic activity of PK was assayed using the synthetic peptide substrate H-D-Pro-Phe-Arg-pNA (Bachem, Peninsula City, Calif.) with the cleavage of the substrate by the enzyme resulting in an increase in A405, measured using a Molecular Devices Vmax Kinetic Microplate Reader. The uninhibited (control) activity of PK was determined by adding 190 μl of PK solution (2 nM in 0.05 M HEPES, pH 7.5, 0.01% Triton X-100) to 10 μl of H-D-Pro-Phe-Arg-pNA (2 mM in DMSO) in individual microtiter plate wells, mixed immediately by shaking, and the rate of increase in absorbance at 405 nm (A405) determined over 120-180 sec. In parallel, compounds of general formula V were mixed in separate wells with the synthetic substrate to attain final concentrations of between 0.01-10 μM in the final 200 μl reaction mixture, and the reaction initiated by the addition of 190 μl of the PK solution. A diminished rate of cleavage in the presence of a compound of general formula V denotes inhibition of PK activity, and the apparent inhibition constant (Ki,app) of the interaction can be determined by using the following equation— Ki,app=[I]/(PKControl/PKI−1) where [I]=concentration of inhibitory compound, PKcontrol=rate of substrate cleavage by uninhibited PK, PKI=rate of substrate cleavage by PK in the presence of inhibitory compound.
The corrected Ki of the interaction can be obtained as follows from the calculated Ki,app— Ki=Ki,app/([S]/Km+1) Where [S]=concentration of synthetic substrate, and Km=Michaelis constant of synthetic substrate for PK, in this case determined experimentally to be 0.33 mM under these conditions.

arthritis = conditions: rat models of arthritis; cited from earlier work
hereditary angioedema = conditions: patients with hereditary angioedema; cited from earlier work
sepsis [4] = conditions: LPS or bacterial induced sepsis in animals; cited from earlier work
sepsis [5] = conditions: sepsis patients; cited from earlier work
[6] = test system: middle cerebral artery occlusion; conditions: mouse model of middle cerebral artery occlusion; cited from earlier work

T1 sequence (P03952 391-638 limits assumed): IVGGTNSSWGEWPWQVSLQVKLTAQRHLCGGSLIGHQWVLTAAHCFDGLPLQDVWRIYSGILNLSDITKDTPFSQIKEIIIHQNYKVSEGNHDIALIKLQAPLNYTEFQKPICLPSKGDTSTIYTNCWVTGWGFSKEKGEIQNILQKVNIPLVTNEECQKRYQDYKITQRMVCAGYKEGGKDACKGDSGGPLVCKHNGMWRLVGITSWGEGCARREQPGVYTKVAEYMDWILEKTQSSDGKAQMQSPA
T1 sequence (P03952 20-390 partner limits assumed): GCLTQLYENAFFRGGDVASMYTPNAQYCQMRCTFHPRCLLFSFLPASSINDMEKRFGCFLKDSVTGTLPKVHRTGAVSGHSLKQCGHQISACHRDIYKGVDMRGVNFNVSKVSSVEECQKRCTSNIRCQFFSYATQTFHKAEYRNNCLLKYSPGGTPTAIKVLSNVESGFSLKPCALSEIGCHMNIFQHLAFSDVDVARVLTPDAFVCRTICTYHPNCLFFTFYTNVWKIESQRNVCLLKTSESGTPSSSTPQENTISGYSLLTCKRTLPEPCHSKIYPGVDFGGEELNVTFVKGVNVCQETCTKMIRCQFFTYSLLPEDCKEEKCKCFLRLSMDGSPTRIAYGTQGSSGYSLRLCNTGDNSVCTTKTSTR

For N=C(N)c1ccc(CNC(=O)c2cnn(Cc3ccccc3)c2)cc1 [ASP-440], the “effect on infarction volume and cerebrovascular edema” value (ischemic stroke) is given as “reduce infarction volume and cerebrovascular edema”, the “effect on retinal vascular permeability” value [1] is given as “reduce retinal vascular permeability; also recorded: effective in reducing retinal vascular permeability” and the “effect on expansion of intracerebral hemorrhage” value (hemorrhagic stroke) is given as “reduce”.

With COC(=O)/N=C(\N)c1ccc(CNC(=O)c2cc(C)n(-c3ccc(F)cc3)c2C)cc1 [Example 4, (Z)-methyl amino-(4-((1-(4-fluorophenyl)-2,5-dimethyl-pyrrole-3-carbonylamino)methyl)phenyl)methylenecarbamate] the “reduction of retinal vascular permeability” value [2] was 55%.

Cc1cc(C(=O)NCc2ccc(C(=N)N)cc2)c(C)n1-c1ccc(F)cc1 [Example 11, N-[(4-carbamimidoylphenyl)methyl]-1-(4-fluorophenyl)-2,5-dimethyl-pyrrole-3-carboxamide] gave a Ki [3] of 13 nM.

Cc1cc(C(=O)NCc2ccc(C(=N)N)cc2)c(C)n1-c1ccc(Cl)cc1 [Example 12, N-[(4-carbamimidoylphenyl)methyl]-1-(4-chlorophenyl)-2,5-dimethyl-pyrrole-3-carboxamide] showed a Ki [3] of 7 nM.

For COc1ccc(-n2c(C)cc(C(=O)NCc3ccc(C(=N)N)cc3)c2C)cc1 [Example 13, N-[(4-carbamimidoylphenyl)methyl]-1-(4-methoxyphenyl)-2,5-dimethyl-pyrrole-3-carboxamide], the Ki [3] was 17 nM.

Cc1cc(C(=O)NCc2ccc(C(=N)N)cc2)c(C)n1-c1ccc2c(c1)OCCO2 [N-[(4-carbamimidoylphenyl)methyl]-1-(2,3-dihydro-1,4-benzodioxin-6-yl)-2,5-dimethyl-pyrrole-3-carboxamide] showed a Ki [3] of 14 nM.

With Cc1cc(C(=O)NCc2ccc(C(=N)N)cc2)c(C)n1-c1ccccn1 [N-[(4-carbamimidoylphenyl)methyl]-2,5-dimethyl-1-(2-pyridyl)pyrrole-3-carboxamide] the Ki [3] was 35 nM.

Cc1cc(C(=O)NCc2ccc(C(=N)N)cc2)c(C)n1-c1cccnc1 [N-[(4-carbamimidoylphenyl)methyl]-2,5-dimethyl-1-(3-pyridyl)pyrrole-3-carboxamide] showed a Ki [3] of 46 nM.

Molecule Cc1cc(C(=O)NCc2ccc(C(=N)N)cc2)c(C)n1-c1nccs1 [N-[(4-carbamimidoylphenyl)methyl]-2,5-dimethyl-1-thiazol-2-yl-pyrrole-3-carboxamide] has a Ki [3] of 68 nM.

In the case of Cl.NCC1CCC(C(=O)N[C@@H](Cc2ccccc2)C(=O)Nc2ccc(CC(=O)O)cc2)CC1 (stereo partly drawn) [PKSI-527], the “effect on joint swelling” value (arthritis) is listed as “reduce joint swelling”.

For NC(N)=NCCC[C@@H](N)C(=O)N[C@@H](CCCN=C(N)N)C(=O)N1CCC[C@H]1C(=O)N1C[C@H](O)C[C@H]1C(=O)NCC(=O)N[C@@H](Cc1cccs1)C(=O)N[C@@H](CO)C(=O)N1Cc2ccccc2C[C@@H]1C(=O)N1[C@H](C(=O)N[C@@H](CCCN=C(N)N)C(=O)O)C[C@@H]2CCCC[C@@H]21 [icatibant], the “effect on edema / hereditary angioedema” value (hereditary angioedema) is given as “effective in treating hereditary angioedema”.

For “H-[dP]-Phe-Arg-CH2Cl [reference compound]”, the “effect on vascular permeability and lesions” value (sepsis [4]) is listed as “reduce vascular permeability in multiple organs and reduce lesions”.

In the case of Hoe-140, the “effect on retinal vascular permeability” value [1] is listed as “reduce retinal vascular permeability”.

B1: C1-INH: the major endogenous inhibitor of PK (protein, UniProt P05155 23-500, looked up)
Plasma protease C1 inhibitor: NPNATSSSSQDPESLQDRGEGKVATTVISKMLFVEPILEVSSLPTTNSTTNSATKITANTTDEPTTQPTTEPTTQPTIQPTQPTTQLPTDSPTQPTTGSFCPGPVTLCSDLESHSTEAVLGDALVDFSLKLYHAFSAMKKVETNMAFSPFSIASLLTQVLLGAGENTKTNLESILSYPKDFTCVHQALKGFTTKGVTSVSQIFHSPDLAIRDTFVNASRTLYSSSPRVLSNNSDANLELINTWVAKNTNNKISRLLDSLPSDTRLVLLNAIYLSAKWKTTFDPKKTRMEPFHFKNSVIKVPMMNSKKYPVAHFIDQTLKAKVGQLQLSHNLSLVILVPQNLKHRLEDMEQALSPSVFKAIMEKLEMSKFQPTLLTLPRIKVTTSQDMLSIMEKLEFFDFSYDLNLCGLTEDPDLQVSAMQHQTVLELTETGVEAAAASAISVARTLLVFEVQQPFLFVLWDQQHKFPVFMGRVYDPRA
In the case of B1, the “effect on vascular permeability and lesions” value (sepsis [4]) is given as “reduce vascular permeability in multiple organs and reduce lesions”, the clinical outcome (sepsis [5]) is given as “Clinical improvement” and the “effect on infarct size” value [6] is given as “reduced infarct size”.
